# Experimental data published in patent US12252457B2, “Compositions and methods for reducing tactile dysfunction, anxiety, and social impairment” (President and Fellows of Harvard College, priority 2018, dated 2025).
# Tested on: large diameter neurons cultured from DRGs of Mecp2 and Shank3 mutant mice
# Experiment: Whole cell patch-clamp recordings of cultured DRG neurons
# Assay type: cell-based, mouse
# Settings: 10 μM isoguvacine
# Protocol: FIGS. 27A-27K are related to FIGS. 19A-19N. FIGS. 27A-27B: Representative traces from large diameter neurons cultured from DRGs of control (FIG. 27A) and Mecp2^STOP/y (FIG. 27B) mice during whole cell current clamp recordings, in which the minimal amount of current required to elicit an action potential in each neuron (rheobase, Rh), was determined in the absence or presence of 10 μm isoguvacine. FIG. 27C: Quantification of average Rh in large diameter neurons cultured from DRGs of control mice during a baseline period and then in presence of 10 μm isoguvacine. Repeated measures one-way ANOVA, post-hoc Tukey's test, *, p<0.05. FIG. 27D: Quantification of average Rh in large diameter neurons cultured from DRGs of control mice during a baseline period, followed application of 10 μm isoguvacine, then washout period. […] FIG. 27E: Quantification of average Rh in large diameter neurons cultured from DRGs of control and Mecp2^STOP/y mice during a baseline period and then in presence of 10 μm isoguvacine. […] FIG. 27F: Quantification of average Rh in large diameter neurons cultured from DRGs of control and Shank3B^+/− mice during a baseline period and then in presence of 10 μm isoguvacine. […] FIG. 27G: Quantification of total Ih density at each hyperpolarizing voltage step for large diameter neurons cultured from DRGs of control, Mecp2^STOP/y and Shank3B^+/− mutant mice. […]
smiles,measurement,setting,value
"O=C(O)C1=CCNCC1 [Isoguvacine, isoguvacine]",Ih,large diameter DRG neurons,without affecting Ih
same,hyperexcitability phenotype (rheobase) of large diameter DRG neurons,neurons from Mecp2 and Shank3 mutant mice,reduced the hyperexcitability phenotype
